{"source": "PubChem BioAssay AID1963840", "about": "(Molecular Pharmacology Branch, DTP, NCI, 2024)", "tested_on": "695427-040-R-J1-PDC complex spheroid viability", "test": "Anticancer human tumor 695427-040-R-J1-PDC patient-derived colon adenocarcinoma cell line growth inhibition [POLQ]", "details": "for viability, T/C: stronger effect = lower value", "experimental": "Multicellular complex tumor spheroid response to Polymerase (POL) inhibitors (novobiocin, ART-558, RP6685) in combination with a variety of drugs and investigational agents in selected tumor cell lines\nThe POL inhibitors (novobiocin, ART-558, and RP6685) were evaluated both individually and in combination with standard of care and investigational anticancer small molecules within a complex spheroid model of solid tumors. . Complex spheroids include a stromal component modeled by human endothelial cells (HUVEC) and fibroblasts modeled by human mesenchymal stem cells (MSCs). The concentration ranges selected for each drug and investigational agent were based upon clinically achievable concentrations if the clinical Cmax of the agent was known.\nCompounds. The drugs and investigational agents: novobiocin (NSC847541), ART-558 (NSC835418), RP-6685 (NSC848927), peposertib (NSC802822), ceralasertib (NSC780249), elimusertib (NSC800525), camonsertib (NSC841442), AZD-1390 (NSC803789), olaparib (NSC753686), talazoparib (NSC767125), rucaparib (NSC756644), sotorasib (NSC818433), MRTX-1133 (NSC836407), SN-38 (NSC673596), topotecan (NSC609699), epotoside (NSC141540), doxorubicin (NSC123127), gemcitabine (NSC613327), 5-fluorouracil (NSC19893), paclitaxel (NSC125973), vemurafenib (NSC761431), MSA-2 (NSC828583), SN-011 (NSC837082), adavosertib (NSC754352), prexasertib (NSC758257), carboplatin (NSC241240) and oxaliplatin (NSC266046), were obtained from the National Cancer Institute (NCI) Developmental Therapeutics Program Chemical Repository (21). The FDA-approved anticancer drug set is available from the Developmental Therapeutics Program at https://dtp.cancer.gov/organization/dscb/obtaining/. […] The stock solutions were prepared in dimethyl sulfoxide (DMSO, Sigma-Aldrich, St. Louis, MO, cat. D2650), except for the platinum compounds which were prepared in saline (Quality Biological, Gaithersburg, MD, cat. 114-055-101), at 800-fold the tested concentration and stored at -70 degrees C prior to their use. All drugs and investigational agents were tested over a range starting from a high concentration at or near the clinical Cmax and decreasing in half-log increments. If the clinical Cmax for an agent had not been determined, the highest concentration tested was 10 microM, except for SN-38, which was tested at a high concentration of 1 microM.\nCell Culture. All cells were maintained in an incubator at 37 degrees C and 5% CO2 with 95% humidity. The PDC lines were cultured according to standard operating procedures established by the NCI PDMR (https://pdmr.cancer.gov). Table 3 of the manuscript, lists the cell lines along with the number of the three cell types plated to form the mct-spheroids and media for tumor cell growth. After thawing, all PDC lines, except 997537-175-T-J1-PDC and 415267-285-R-J2-PDC, were cultured in Matrigel-coated flasks prepared with a working solution of 1X Ham's F-12 nutrient mix, without supplementation (Thermo Fisher Scientific, cat. 11765054), 100 U/mL penicillin-streptomycin (Thermo Fisher Scientific, cat. 15140122), and 2.5% Matrigel (Corning Inc., Corning, NY, cat. 354248) for the first three passages. The two PDC lines 997537-175-T-J1-PDC and 415267-285-R-J2-PDC were cultured on uncoated flasks. The 857933-349-R-J2-PDC line was cultured in 6C/Colon 1B media containing advanced DMEM/F-12 (Thermo Fisher Scientific, cat. 12634028), 10 mM HEPES (Thermo Fisher Scientific, cat. 15630080), 1X GlutaMAX supplement (Thermo Fisher Scientific, cat. 35050061), 0.1 mg/mL primocin (InvivoGen, San Diego, CA, cat. ant-pm-2), 10% defined fetal bovine serum, heat inactivated (HyClone Laboratories Inc., Logan, UT, cat. SH30070.03HI), 50% L-WRN conditioned media (ATCC, cat. CRL-3276), 1.25 mM N-Acetyl-L-cysteine (Sigma-Aldrich, cat. A9165), 10 mM nicotinamide (Sigma-Aldrich, cat. N0636), 1X B-27 supplement (Thermo Fisher Scientific, cat. 17504044), 1X N-2 supplement (Thermo Fisher Scientific, cat. […]", "note": "Several values for one entry are separate records, joined by “and”; a condition that tells them apart may be missing. Identical values can stand only once.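 Note: spheroids exposed to compounds for seven days.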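 Throughout, for viability, T/C: 100% = DMSO vehicle control viability.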"}
{"compound": "CCc1c2c(nc3ccc(O)cc13)-c1cc3c(c(=O)n1C2)COC(=O)[C@]3(O)CC", "values": [{"measurement": "viability, T/C", "setting": "compound 0.00316 µM", "result": "92.3% and 98.2% and 97%"}, {"measurement": "viability, T/C", "setting": "compound 0.01 µM", "result": "79.9% and 89.2% and 92.2%"}, {"measurement": "viability, T/C", "setting": "compound 0.0316 µM", "result": "76.8% and 99.3% and 92.6%"}, {"measurement": "viability, T/C", "setting": "compound 0.1 µM", "result": "77.9% and 90.7% and 82.1%"}, {"measurement": "viability, T/C", "setting": "compound 0.316 µM", "result": "65.9% and 87.4% and 76%"}, {"measurement": "viability, T/C", "setting": "compound 1 µM", "result": "49.6% and 66.4% and 51.3%"}, {"measurement": "IC50", "setting": "curve of compound", "result": "> 1", "unit": "µM"}]}
{"compound": "COc1ccc([C@@H](O)c2cc(-c3ncnc4cc(N5CCOCC5)ccc34)c(F)cc2Cl)nn1", "note": "+ Nc1ccc(C#CCN(C(=O)Cc2ncc(C(F)(F)F)cc2C(F)(F)F)c2ccc(F)cc2)nn1", "values": [{"measurement": "IC50", "setting": "curve of first compound, second compound 0.0316 µM", "result": "> 10", "unit": "µM"}, {"measurement": "IC50", "setting": "curve of first compound, second compound 0.1 µM", "result": "> 10", "unit": "µM"}, {"measurement": "IC50", "setting": "curve of first compound, second compound 0.316 µM", "result": "> 10", "unit": "µM"}, {"measurement": "IC50", "setting": "curve of first compound, second compound 1 µM", "result": "> 10", "unit": "µM"}, {"measurement": "IC50", "setting": "curve of first compound, second compound 3.16 µM", "result": "> 10", "unit": "µM"}, {"measurement": "IC50", "setting": "curve of first compound, second compound 10 µM", "result": "> 10", "unit": "µM"}, {"measurement": "viability, T/C", "setting": "second compound 0.0316 µM, first compound 0.0316 µM", "result": 101, "unit": "%"}, {"measurement": "viability, T/C", "setting": "second compound 0.0316 µM, first compound 0.1 µM", "result": 91.6, "unit": "%"}, {"measurement": "viability, T/C", "setting": "second compound 0.0316 µM, first compound 0.316 µM", "result": 99.2, "unit": "%"}, {"measurement": "viability, T/C", "setting": "second compound 0.0316 µM, first compound 1 µM", "result": 89.7, "unit": "%"}, {"measurement": "viability, T/C", "setting": "second compound 0.0316 µM, first compound 3.16 µM", "result": 84.3, "unit": "%"}, {"measurement": "viability, T/C", "setting": "second compound 0.0316 µM, first compound 10 µM", "result": 60.7, "unit": "%"}, {"measurement": "viability, T/C", "setting": "second compound 0.1 µM, first compound 0.0316 µM", "result": 105, "unit": "%"}, {"measurement": "viability, T/C", "setting": "second compound 0.1 µM, first compound 0.1 µM", "result": 108, "unit": "%"}, {"measurement": "viability, T/C", "setting": "second compound 0.1 µM, first compound 0.316 µM", "result": 98.8, "unit": "%"}, {"measurement": "viability, T/C", "setting": "second compound 0.1 µM, first compound 1 µM", "result": 89.3, "unit": "%"}, {"measurement": "viability, T/C", "setting": "second compound 0.1 µM, first compound 3.16 µM", "result": 86.5, "unit": "%"}, {"measurement": "viability, T/C", "setting": "second compound 0.1 µM, first compound 10 µM", "result": 54, "unit": "%"}, {"measurement": "viability, T/C", "setting": "second compound 0.316 µM, first compound 0.0316 µM", "result": 108, "unit": "%"}, {"measurement": "viability, T/C", "setting": "second compound 0.316 µM, first compound 0.1 µM", "result": 106, "unit": "%"}, {"measurement": "viability, T/C", "setting": "second compound 0.316 µM, first compound 0.316 µM", "result": 99.7, "unit": "%"}, {"measurement": "viability, T/C", "setting": "second compound 0.316 µM, first compound 1 µM", "result": 89.6, "unit": "%"}, {"measurement": "viability, T/C", "setting": "second compound 0.316 µM, first compound 3.16 µM", "result": 89.9, "unit": "%"}, {"measurement": "viability, T/C", "setting": "second compound 0.316 µM, first compound 10 µM", "result": 63.9, "unit": "%"}, {"measurement": "viability, T/C", "setting": "second compound 1 µM, first compound 0.0316 µM", "result": 108, "unit": "%"}, {"measurement": "viability, T/C", "setting": "second compound 1 µM, first compound 0.1 µM", "result": 97.5, "unit": "%"}, {"measurement": "viability, T/C", "setting": "second compound 1 µM, first compound 0.316 µM", "result": 91.1, "unit": "%"}, {"measurement": "viability, T/C", "setting": "second compound 1 µM, first compound 1 µM", "result": 91, "unit": "%"}, {"measurement": "viability, T/C", "setting": "second compound 1 µM, first compound 3.16 µM", "result": 86.2, "unit": "%"}, {"measurement": "viability, T/C", "setting": "second compound 1 µM, first compound 10 µM", "result": 52.2, "unit": "%"}, {"measurement": "viability, T/C", "setting": "second compound 3.16 µM, first compound 0.0316 µM", "result": 101, "unit": "%"}, {"measurement": "viability, T/C", "setting": "second compound 3.16 µM, first compound 0.1 µM", "result": 97.4, "unit": "%"}, {"measurement": "viability, T/C", "setting": "second compound 3.16 µM, first compound 0.316 µM", "result": 99.2, "unit": "%"}, {"measurement": "viability, T/C", "setting": "second compound 3.16 µM, first compound 1 µM", "result": 90.9, "unit": "%"}, {"measurement": "viability, T/C", "setting": "second compound 3.16 µM, first compound 3.16 µM", "result": 78.3, "unit": "%"}, {"measurement": "viability, T/C", "setting": "second compound 3.16 µM, first compound 10 µM", "result": 56.2, "unit": "%"}, {"measurement": "viability, T/C", "setting": "second compound 10 µM, first compound 0.0316 µM", "result": 101, "unit": "%"}, {"measurement": "viability, T/C", "setting": "second compound 10 µM, first compound 0.1 µM", "result": 92.5, "unit": "%"}, {"measurement": "viability, T/C", "setting": "second compound 10 µM, first compound 0.316 µM", "result": 90.1, "unit": "%"}, {"measurement": "viability, T/C", "setting": "second compound 10 µM, first compound 1 µM", "result": 89.8, "unit": "%"}, {"measurement": "viability, T/C", "setting": "second compound 10 µM, first compound 3.16 µM", "result": 82.1, "unit": "%"}, {"measurement": "viability, T/C", "setting": "second compound 10 µM, first compound 10 µM", "result": 55.1, "unit": "%"}]}
{"compound": "CC1COCCN1c1cc(C2(S(C)(=N)=O)CC2)nc(-c2ccnc3[nH]ccc23)n1", "note": "(stereo not given)", "values": [{"measurement": "viability, T/C", "setting": "compound 0.0316 µM", "result": "102% and 96% and 100%"}, {"measurement": "viability, T/C", "setting": "compound 0.1 µM", "result": "96% and 102% and 100%"}, {"measurement": "viability, T/C", "setting": "compound 0.316 µM", "result": "100% and 94.3% and 98.1%"}, {"measurement": "viability, T/C", "setting": "compound 1 µM", "result": "103% and 91.7% and 102%"}, {"measurement": "viability, T/C", "setting": "compound 3.16 µM", "result": "96.4% and 98.4% and 99.3%"}, {"measurement": "viability, T/C", "setting": "compound 10 µM", "result": "80.5% and 96.6% and 81.2%"}, {"measurement": "IC50", "setting": "curve of compound", "result": "> 10", "unit": "µM"}]}
{"compound": "COc1cc2cc(C(=O)CCC(=O)O)sc2cc1OC", "values": [{"measurement": "viability, T/C", "setting": "compound 0.0316 µM", "result": "109% and 100% and 101%"}, {"measurement": "viability, T/C", "setting": "compound 0.1 µM", "result": "97.3% and 102% and 99.5%"}, {"measurement": "viability, T/C", "setting": "compound 0.316 µM", "result": "97.4% and 105% and 103%"}, {"measurement": "viability, T/C", "setting": "compound 1 µM", "result": "104% and 105% and 107%"}, {"measurement": "viability, T/C", "setting": "compound 3.16 µM", "result": "103% and 102% (2×)"}, {"measurement": "viability, T/C", "setting": "compound 10 µM", "result": "99.8% and 93.7% and 102%"}, {"measurement": "IC50", "setting": "curve of compound", "result": "> 10", "unit": "µM"}]}
{"compound": "O=C(c1cc(Cc2n[nH]c(=O)c3ccccc23)ccc1F)N1CCN(C(=O)C2CC2)CC1", "values": [{"measurement": "viability, T/C", "setting": "compound 0.0316 µM", "result": "102% and 101% (2×)"}, {"measurement": "viability, T/C", "setting": "compound 0.1 µM", "result": "87.2% and 107% and 101%"}, {"measurement": "viability, T/C", "setting": "compound 0.316 µM", "result": "102% and 110% and 100%"}, {"measurement": "viability, T/C", "setting": "compound 1 µM", "result": "99% and 107% and 102%"}, {"measurement": "viability, T/C", "setting": "compound 3.16 µM", "result": "101% and 102% and 114%"}, {"measurement": "viability, T/C", "setting": "compound 10 µM", "result": "97.8% and 97.4% and 107%"}, {"measurement": "IC50", "setting": "curve of compound", "result": "> 10", "unit": "µM"}]}
